Reference: patent publication US8906832B2, “Quantitative analysis of carbohydrate-protein interactions using glycan microarrays: determination of surface and solution dissociation constants” (Academia Sinica, priority 2008, dated 2014)
Where two headings read alike, the source gives them in different places.

Assays:
[1] = molecular target: T1, Con A (Canavalia ensiformis, UniProt P02866); assay: Competitive binding assay on glycan microarray (solution KD / Ki)
T1 construct: purchased Sigma
Text: The solution equilibrium dissociation constant (KD) for carbohydrate-lectin interactions can be determined using microarrays in a competitive assay. […] In a competitive binding experiment, carbohydrates in solution compete with immobilized carbohydrate ligands for the binding sites on the lectin, establishing a coupled equilibrium between the binding of protein to the immobilized species and to the species present in solution. Using array imaging signals, the unbound protein concentration [P] can be obtained via Langmuir isotherms (eq 1). Once the concentration of P has been measured, it is possible to determine the KD using eq 2, which is derived from the multivalent Scatchard formula (see the Experimental Section for the derivation of eq 2)
where [Lo] is ligand (carbohydrate) concentration applied to the system, and KD is the solution equilibrium dissociation constant. […] Binding curves, representing different concentrations of competitors were obtained as the function of FITC-Con A concentrations and fluorescence intensities from the Man8 surface (FIG. 4a). The data was analyzed according to eq 2, to afford apparent KD values, which were then replotted against competitor concentration to afford the solution KD values (FIG. 4b). […]
ArrayVision 8.0 (Applied Precision) was used for the fluorescence analysis and extraction of data. […]

[2] = molecular target: T1, Con A; conditions: obtained by SPR; cited from earlier work
[3] = molecular target: T1, Con A; conditions: obtained by microcalorimetry; cited from earlier work
[4] = molecular target: T2, lectins or antibodies (Lens culinaris, UniProt P02870); assay: Direct binding on glycan microarray, lectin or antibody not named; conditions: binding protein not given
T2 construct: purchased Sigma
T2 sequence (P02870 31-210 limits assumed): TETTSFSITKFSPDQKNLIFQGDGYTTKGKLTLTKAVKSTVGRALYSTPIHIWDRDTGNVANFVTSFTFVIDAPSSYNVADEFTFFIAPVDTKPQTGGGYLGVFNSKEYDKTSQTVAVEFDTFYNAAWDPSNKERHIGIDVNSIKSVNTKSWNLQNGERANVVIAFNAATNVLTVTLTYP
T2 sequence (P02870 218-269 limits assumed): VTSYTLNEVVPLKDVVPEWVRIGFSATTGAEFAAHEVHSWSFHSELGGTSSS
Text: Prior studies of carbohydrate-protein interactions have used a threshold-based, one-step qualitative analysis i.e. interaction or non-interaction. The threshold varies from one carbohydrate to another and is based on how well the carbohydrate behaves in the assay. Even when closely related glycans are studied under ideal conditions, they vary with respect to the surface density of active carbohydrates. Since the intensity of a spot depends both on KD,surf (which results from binding affinity), and Fmax (which results from surface active carbohydrate density and protein binding), the information obtained by probing an array with a single concentration of analytes may not be accurate.

Row | Compound | relative affinity KD (a-MeGlc)/KD (a-MeMan) ([1]; inhibitors in solution, Con A) | Ki [2] [µM] | Ki [3] [µM] | fold stronger than Man1 in binding to Con A ([1]; from solution KD values) | Fmax (maximal fluorescence intensity) [4] | Kd ([4]; read-out: KD (dissociation constant, surface)) [µM]
1 | COC1OC(CO)C(O)C(O)C1O (stereo not drawn) [a-MeMan, α-methyl mannose] | 4.3 | 92 | 120 |  |  | 
2 | COC1OC(CO)C(O)C(O)C1O (stereo not drawn) [a-MeGlc, α-methyl glucose] |  |  | 520 |  |  | 
3 | Man9 |  |  |  | more than 10^3 fold | 25780 | 0.335
